Data: patent US20250000834A1, “COMPOSITIONS AND METHODS FOR TARGETING GPCR FOR THE PREVENTION AND TREATMENT OF PAIN” (Duke University, priority 2021, published 2025)

Tests used:
GPR37L1 [1] = test: Lipid overlay assay on MaR1-coated PVDF membrane with mouse DRG lysates; format: binding; settings: Gpr37l1 KO DRG lysate
Procedure: (§1) Lipids overlay assay: Lipids membrane coating and protein overlay assay were performed as previously described (S. Dowler, et al., Protein lipid overlay assay. Sci STKE 2002, p 16 (2002)). […] Compound-coated membranes were dried and blocked with 1% BSA. The coated membranes were incubated with lysates obtained from hGPR37L1-transfected HEK293 cells or mouse DRG lysate from WT or Gpr37l1 KO mice for 2 hours, followed by detection using an anti-GRP37L1 antibody (Bioss (Woburn, MA), Rabbit, 1:1000, #bs-15390R) or anti-flag antibody (Cell Signaling Technology (Danvers, MA), Rabbit, 1:1000, #14793). Blots were further incubated with an HRP-conjugated secondary anti-rabbit antibody (Jackson ImmunoResearch Laboratories (West Grove, PA), raised in donkey, 1:5000), developed in ECL solution (Pierce Biotechnology, Waltham, MA), and the signal was visualized from ChemiDoc XRS (Bio-Rad, Hercules, CA). The signal Intensity was quantified by Image J software (NIH).
(§2) To confirm whether DRG-expressed GPR37L1 would also interact with MaR1, a lipid overlay assay was performed on MaR1-coated PVDF membrane using DRG lysates from WT or Gpr37l1 KO mice. To determine dose-dependent binding, MaR1 was coated at the concentrations of 0.01 nM, 0.1 nM, 1 nM, and 10 nM.

GPR37L1 [2] = target: T1, GPR37L1 (Mus musculus, UniProt Q99JG2); test: as above; format: binding; settings: WT DRG lysate; MaR1 coated at 10 nM
T1 construct: from tissue; host or cells: mouse dorsal root ganglia (DRG)
T1 sequence (Q99JG2 25-481): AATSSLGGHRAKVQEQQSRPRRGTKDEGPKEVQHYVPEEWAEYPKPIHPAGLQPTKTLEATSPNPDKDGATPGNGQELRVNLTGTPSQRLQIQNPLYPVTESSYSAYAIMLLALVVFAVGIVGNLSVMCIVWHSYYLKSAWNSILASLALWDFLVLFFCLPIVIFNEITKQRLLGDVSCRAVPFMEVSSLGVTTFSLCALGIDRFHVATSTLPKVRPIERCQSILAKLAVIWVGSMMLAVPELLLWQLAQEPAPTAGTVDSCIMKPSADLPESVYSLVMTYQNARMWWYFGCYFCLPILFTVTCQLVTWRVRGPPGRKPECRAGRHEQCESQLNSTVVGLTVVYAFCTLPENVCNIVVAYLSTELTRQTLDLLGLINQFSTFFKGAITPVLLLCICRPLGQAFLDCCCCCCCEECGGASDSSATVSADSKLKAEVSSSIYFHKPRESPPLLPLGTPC
Procedure: as §1, §2

[3] = tested on: Kir4.1 potassium channels in SGCs; test: Patch-clamp recordings of K+ currents in SGCs of whole-mount DRG; format: cell-based, mouse
Procedure: Patch-clamp recordings in SGCs of whole-mount DRG: Under urethane anesthesia, mice were rapidly euthanized, followed by careful isolation of lumbar DRGs placed in the oxygenated artificial cerebral spinal fluid (aCSF). DRGs were briefly digested (20 min) using an enzymatic mixture consisting of collagenase A (1 mg/mL) and 0.32 mL Trypsin (0.25% original solution). Intact DRG were then incubated in aCSF oxygenated with 95% O2 and 5% CO2 at 34° C. Following incubation, DRG were transferred to a recording chamber. Isolated DRGs were transferred to a recording chamber continuously perfused (˜3 ml/min) with aCSF. SGCs in whole mouse DRGs could be visualized using a 40× water-immersion objective on an Olympus BX51WI microscope (Olympus Corp., Shinjuku, Japan). The round or fusiform-shaped cell bodies of SGCs were small (<10 μm) but visible near the edges of DRG neurons. Patch pipettes (Chase Scientific Glass Inc., Ramsey, MN) were pulled and filled with a pipette solution containing: 126 mM potassium gluconate, 10 mM NaCl, 1 mM MgCl2, 10 mM EGTA, 2 mM Na-ATP, and 0.1 mM Mg-GTP, adjusted to pH 7.3 with KOH. The resistance of pipettes was 10-12 MΩ. A Whole-cell patch-clamp configuration was made on SGCs at room temperature using a Multiclamp 700B amplifier (Axon Instruments, Union City, CA). Under voltage clamp, at a holding potential of −80 mV, inward or outward currents are triggered by voltage steps of −160 to +40 mV, with 20 mV increment in 200 ms (H. Zhang et al., Altered functional properties of satellite glial cells in compressed spinal ganglia. Glia 57, 1588-1599 (2009)). To isolate inwardly rectifying potassium current (Kir), potassium currents from the same cells were recorded in the absence and presence of 100 μM extracellular barium, which blocks the Kir4.1 channel (C. A. Doupnik, et al, The inward rectifier potassium channel family. Curr Opin Neurobiol 5, 268-277 (1995); X. Tong et al., Astrocyte Kir4.1 ion channel deficits contribute to neuronal dysfunction in Huntington's disease model mice. Nat Neurosci 17, 694-703 (2014)). The Kir4.1 currents were obtained by digitally subtracting those currents in the absence and presence of barium.
Kir4.1 potassium channels are the predominant potassium channels in SGCs and are chiefly responsible for the potassium currents in SGCs. Dysregulation of SGC Kir4.1 contributes to the pathogenesis of pain (M. Hanani, D. C. Spray, Emerging importance of satellite glia in nervous system function and dysfunction. Nat Rev Neurosci 21, 485-498 (2020)). SGC K^+ currents were recorded by conducting patch-clamp recordings in SGCs in whole-mount DRG preparation (data not shown; see U.S. Prov. No. 63/270,198, FIG. 7A), collected from WT mice, Gpr37l1^+/+ mice, and Gpr37l1^+/− mutant mice (FIG. 11A parts A-C).

## CC/C=C\C/C=C\C[C@H](O)\C=C/C=C/C=C/[C@H](O)C/C=C\CCC(=O)O [MaR1, Maresin 1]
GPR37L1 [1]
  binding spot in lipid overlay assay: completely absent
GPR37L1 [2]
  binding spot in lipid overlay assay: specific binding spot was observed
[3]; 100 ng/ml co-applied with PTX, Gpr37l1+/+ DRG
  effect on PTX-induced downregulation of K+ currents in SGCs: significantly rescued
[3]; 100 ng/ml with PTX, Gpr37l1 mutant (Gpr37l1+/−) DRG
  effect on K+ currents in SGCs: completely abolished
